In US8946431B2, “2-(substituted ethynyl)quinoline derivatives as mGLUr5 antagonists” (Korea Institute of Science and Technology, priority 2013, dated 2015):

Tests used:
mGluR5 [1] = molecular target: T1, mGluR5 (Homo sapiens, UniProt P41594); assay: Assay for m-GluR5 activity using FDSS6000 (calcium mobilization by L-glutamate in mGluR5/HEK293 cells); assay type: cell-based; settings: L-glutamate 10 uM, HEK cells expressing m-GluR5; for inhibition at 1 µM / inhibition at 10 µM: HEK293, read-out: % Inhibition rate (mGluR5)
T1 construct: host or cells: HEK293 (human embryonic kidney) cells stably expressing m-GluR5
Protocol: Inhibitory activity (%) of the compound represented by Formula 1 on calcium mobilization developed at a high concentration of glutamate in mGluR5/HEK293 cells was measured by using a high throughput FDSS6000.
After HEK cells stably expressing m-GluR5 (Human embryonic kidney cell line; m-GluR5: Yonsei University) were prepared at a density of 4×10^4/Ml per well, aliquots of 100 μl from the cell suspension were distributed evenly into a 96-well plate and incubated for 18 hr at 37° C., 5% CO2. The well plate was washed with a HBSS buffer to remove the culture medium, and reacted with a HBSS buffer containing a Ca^2+ fluorescent dye (FLIPR Calcium 5 assay kit: Molecular Devices) for 30 min at 37° C., 5% CO2, thereby labeling with the fluorescent dye. Separately from the 96-well plate including the cells, another 96-well plate including L-glutamate (final concentration: 10 uM) capable of activating m-GluR5 and a blacking agent was prepared. Since most of cell-based HTS devices are equipped with a liquid application system for injection of a drug, but have no liquid sucking system, the blocking agent to be tested and L-glutamate were respectively provided at a 6-fold higher concentration in a HBSS buffer at the amount of 25 μl, diluted by six-times at the final cell plate volume of 150 μl, and then used in this assay. Briefly, the FDSS6000 assay was carried out by recording a reference level of 20 sec, pre-treating with a blocking agent for 75 sec, and then measuring the change in intracellular calcium level depending on the administration of L-glutamate. After the area of a 480/520 ratio value in a control without treatment of a test drug was set to 100%, an inhibitory effect of the test drug was calculated as a percentage (%) thereon.
For accurate calcium imaging, the light source of 4 xenon lamps in FDSS6000 were radiated to selectively expose the cells to the excitation wavelength (480 nm) by a computer-controlled filter wheel. Data were obtained at intervals of 1.23 sec. The emitter fluorescence light inflowed through a 520 nm long-pass filter was obtained as an average 480/520 ratio value for each well in the 96-wells by using a CCD camera and a digital fluorescence analyzer in FDSS6000. All image data and analyses were obtained by using a FDSS6000-exclusive program from Hamamatsu Photonics.

[2] = HLM (human liver microsomal) stability; assay type: in vitro ADME; settings: human liver microsomes
CYP2D6 = CYP2D6 (Homo sapiens, UniProt P10635); assay: CYP inhibitory rate, CYP2D6; assay type: in vitro ADME
CYP2C9 = CYP2C9 (Homo sapiens, UniProt P11712); assay: CYP inhibitory rate, CYP2C9; assay type: in vitro ADME
CYP3A4 = CYP3A4 (Homo sapiens, UniProt P08684); assay: CYP inhibitory rate, CYP3A4; assay type: in vitro ADME
mGluR5 [3] = molecular target: T1, mGluR5; assay: Inhibitory concentration (IC50) on mGluR5; assay type: cell-based
hERG = hERG (Homo sapiens, UniProt Q12809); assay: Inhibitory concentration (IC50) on hERG
Chain of hERG (Q12809 whole entry): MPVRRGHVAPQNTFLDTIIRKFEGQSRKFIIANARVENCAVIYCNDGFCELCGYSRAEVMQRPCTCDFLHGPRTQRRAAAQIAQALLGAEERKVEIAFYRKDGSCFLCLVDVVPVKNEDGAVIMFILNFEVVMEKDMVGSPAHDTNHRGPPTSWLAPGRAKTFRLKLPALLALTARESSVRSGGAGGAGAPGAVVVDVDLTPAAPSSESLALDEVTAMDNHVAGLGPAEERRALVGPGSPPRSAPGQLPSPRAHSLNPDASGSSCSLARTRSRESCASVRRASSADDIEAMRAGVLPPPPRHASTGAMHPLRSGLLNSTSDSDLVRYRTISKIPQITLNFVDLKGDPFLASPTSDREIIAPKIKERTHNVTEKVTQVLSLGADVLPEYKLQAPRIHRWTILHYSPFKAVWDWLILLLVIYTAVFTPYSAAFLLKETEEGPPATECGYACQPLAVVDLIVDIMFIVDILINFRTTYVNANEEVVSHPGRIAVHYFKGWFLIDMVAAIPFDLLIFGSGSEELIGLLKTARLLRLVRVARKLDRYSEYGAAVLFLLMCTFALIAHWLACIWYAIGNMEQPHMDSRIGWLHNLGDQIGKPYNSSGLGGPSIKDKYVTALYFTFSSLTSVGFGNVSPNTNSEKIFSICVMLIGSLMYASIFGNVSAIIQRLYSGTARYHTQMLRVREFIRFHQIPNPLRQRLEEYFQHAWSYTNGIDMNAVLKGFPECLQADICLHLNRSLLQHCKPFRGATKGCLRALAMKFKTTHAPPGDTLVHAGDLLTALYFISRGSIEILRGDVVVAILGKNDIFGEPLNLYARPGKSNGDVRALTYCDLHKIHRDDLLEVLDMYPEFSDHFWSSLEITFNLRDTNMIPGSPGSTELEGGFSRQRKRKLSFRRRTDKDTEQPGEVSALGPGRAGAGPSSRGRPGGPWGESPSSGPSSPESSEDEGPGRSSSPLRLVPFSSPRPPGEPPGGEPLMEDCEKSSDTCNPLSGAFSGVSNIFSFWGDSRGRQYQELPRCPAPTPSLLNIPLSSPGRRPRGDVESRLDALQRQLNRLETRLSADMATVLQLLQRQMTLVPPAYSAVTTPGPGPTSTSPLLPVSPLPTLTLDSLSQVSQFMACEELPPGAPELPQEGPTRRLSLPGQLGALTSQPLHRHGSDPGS

T1 sequence (P41594 21-1212): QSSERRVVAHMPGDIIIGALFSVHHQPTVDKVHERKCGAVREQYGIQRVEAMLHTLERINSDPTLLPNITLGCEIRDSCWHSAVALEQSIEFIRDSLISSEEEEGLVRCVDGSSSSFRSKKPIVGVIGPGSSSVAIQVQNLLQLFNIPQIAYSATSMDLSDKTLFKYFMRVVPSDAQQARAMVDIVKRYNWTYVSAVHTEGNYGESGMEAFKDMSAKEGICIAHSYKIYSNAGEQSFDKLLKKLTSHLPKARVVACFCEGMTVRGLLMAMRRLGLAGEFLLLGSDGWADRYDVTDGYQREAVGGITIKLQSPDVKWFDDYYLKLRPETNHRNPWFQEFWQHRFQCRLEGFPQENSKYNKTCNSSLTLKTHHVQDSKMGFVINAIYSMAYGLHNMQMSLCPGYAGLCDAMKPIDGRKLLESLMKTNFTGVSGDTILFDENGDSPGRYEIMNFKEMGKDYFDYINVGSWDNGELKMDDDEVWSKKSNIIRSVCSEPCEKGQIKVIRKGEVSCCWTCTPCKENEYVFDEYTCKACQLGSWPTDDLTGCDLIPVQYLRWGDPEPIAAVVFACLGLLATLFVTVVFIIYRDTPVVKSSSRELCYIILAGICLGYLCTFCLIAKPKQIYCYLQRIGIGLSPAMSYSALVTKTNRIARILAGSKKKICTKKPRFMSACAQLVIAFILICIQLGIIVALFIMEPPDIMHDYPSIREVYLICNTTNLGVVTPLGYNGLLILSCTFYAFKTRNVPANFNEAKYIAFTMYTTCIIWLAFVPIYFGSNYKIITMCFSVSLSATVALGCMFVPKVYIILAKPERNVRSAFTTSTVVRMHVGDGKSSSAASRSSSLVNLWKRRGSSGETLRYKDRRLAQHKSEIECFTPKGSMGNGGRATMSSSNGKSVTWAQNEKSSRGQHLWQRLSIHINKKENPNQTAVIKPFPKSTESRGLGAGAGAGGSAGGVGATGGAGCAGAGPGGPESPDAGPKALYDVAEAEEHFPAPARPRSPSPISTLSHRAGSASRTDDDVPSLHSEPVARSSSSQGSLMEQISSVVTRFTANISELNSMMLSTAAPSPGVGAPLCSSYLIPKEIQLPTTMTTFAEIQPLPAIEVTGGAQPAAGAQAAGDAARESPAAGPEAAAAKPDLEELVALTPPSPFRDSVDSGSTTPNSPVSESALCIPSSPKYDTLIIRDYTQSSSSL
Chain of CYP3A4 (P08684 whole entry): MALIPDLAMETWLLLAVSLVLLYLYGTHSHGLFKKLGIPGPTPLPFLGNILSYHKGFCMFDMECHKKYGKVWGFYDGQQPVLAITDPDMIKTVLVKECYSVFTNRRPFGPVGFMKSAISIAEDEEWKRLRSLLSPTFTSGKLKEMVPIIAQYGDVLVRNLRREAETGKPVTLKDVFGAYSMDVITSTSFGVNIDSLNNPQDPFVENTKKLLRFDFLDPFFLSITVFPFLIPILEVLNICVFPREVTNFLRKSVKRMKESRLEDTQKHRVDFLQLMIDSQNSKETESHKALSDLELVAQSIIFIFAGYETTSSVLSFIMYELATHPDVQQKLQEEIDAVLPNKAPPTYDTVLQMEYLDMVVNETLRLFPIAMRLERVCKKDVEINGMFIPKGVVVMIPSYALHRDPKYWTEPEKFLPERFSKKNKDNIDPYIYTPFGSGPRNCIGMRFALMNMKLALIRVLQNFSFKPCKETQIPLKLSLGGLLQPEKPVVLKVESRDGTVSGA
Chain of CYP2D6 (P10635 whole entry): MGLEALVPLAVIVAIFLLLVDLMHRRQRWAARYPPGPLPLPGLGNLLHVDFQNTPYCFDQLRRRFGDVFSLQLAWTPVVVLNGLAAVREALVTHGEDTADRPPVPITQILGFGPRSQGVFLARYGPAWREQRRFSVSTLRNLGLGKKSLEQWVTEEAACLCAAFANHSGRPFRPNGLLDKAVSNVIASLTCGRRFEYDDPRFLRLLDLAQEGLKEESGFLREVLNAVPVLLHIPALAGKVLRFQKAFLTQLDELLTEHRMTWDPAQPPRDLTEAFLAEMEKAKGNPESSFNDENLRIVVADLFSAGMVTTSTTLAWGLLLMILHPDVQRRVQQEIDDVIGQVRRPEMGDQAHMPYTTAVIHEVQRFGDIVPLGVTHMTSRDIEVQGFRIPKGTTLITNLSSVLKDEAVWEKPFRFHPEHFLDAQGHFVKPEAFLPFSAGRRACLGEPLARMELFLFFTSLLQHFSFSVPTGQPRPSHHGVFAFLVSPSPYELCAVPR
Chain of CYP2C9 (P11712 whole entry): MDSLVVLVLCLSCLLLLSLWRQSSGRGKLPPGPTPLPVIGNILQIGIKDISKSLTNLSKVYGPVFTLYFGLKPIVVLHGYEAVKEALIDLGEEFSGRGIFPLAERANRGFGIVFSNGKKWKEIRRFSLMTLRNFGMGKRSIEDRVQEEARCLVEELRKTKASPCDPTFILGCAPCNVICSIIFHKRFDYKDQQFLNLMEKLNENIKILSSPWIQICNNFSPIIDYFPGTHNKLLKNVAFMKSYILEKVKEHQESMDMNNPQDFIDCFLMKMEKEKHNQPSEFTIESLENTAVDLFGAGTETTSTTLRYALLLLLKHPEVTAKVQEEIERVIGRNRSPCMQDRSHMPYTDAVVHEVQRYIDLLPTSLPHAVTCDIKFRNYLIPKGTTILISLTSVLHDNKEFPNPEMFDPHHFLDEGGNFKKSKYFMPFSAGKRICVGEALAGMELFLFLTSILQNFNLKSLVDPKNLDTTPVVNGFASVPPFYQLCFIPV

Compound | inhibition at 1 µM (mGluR5 [1]; 1 μM compound) [%] | inhibition at 10 µM (mGluR5 [1]; 10 μM compound) [%] | other results
C(#Cc1ccc2ccccc2n1)c1ccccc1 [Example 11, 2-(Phenylethynyl)quinoline] | 35.9 | 67.7 | 
Clc1cccc2nc(C#Cc3ccccn3)ccc12 [Example 12, 5-Chloro-2-(pyridine-2-ylethynyl)quinoline] | 31 | 64.3 | 
FC(F)(F)c1cccnc1C#Cc1ccc2ccccc2n1 [Example 13, 2-((3-(Trifluoromethyl)pyridine-2-yl)ethynyl)quinoline] | 9.49 | 16.4 | 
COc1cccc2nc(C#Cc3ccccc3)ccc12 [Example 14, 5-Methoxy-2-(phenylethynyl)quinoline] | 63.6 | 68 | HLM % remaining after 30 min [2]: <1%; CYP (% remaining @ 10 μM) CYP2D6 (CYP2D6): >99%; CYP (% remaining @ 10 μM) CYP2C9 (CYP2C9): 55%; CYP (% remaining @ 10 μM) CYP3A4 (CYP3A4): 50%
CC(C)(C)C(=O)Oc1cccc2nc(C#Cc3ccccc3)ccc12 [Example 15, 2-(Phenylethynyl)quinoline-5-ylpivalate] |  |  | % Inhibition rate (mGluR5) (mGluR5 [1]; 1 μM compound): 24.03%; % Inhibition rate (mGluR5) (mGluR5 [1]; 10 μM compound): 23.77%
Oc1cccc2nc(C#Cc3ccccc3)ccc12 [Example 16, 2-(Phenylethynyl)quinoline-5-ol] | 18 | 24.3 | 
Clc1cccc2nc(C#Cc3ccccc3)ccc12 [Example 17, 5-Chloro-2-(phenylethynyl)quinoline] | 11.7 | 8.02 | 
Brc1cccc2nc(C#Cc3ccccc3)ccc12 [Example 18, 5-Bromo-2-(phenylethynyl)quinoline] | 21.1 | 20.7 | 
C(#Cc1ccc2ccccc2n1)c1cccnc1 [Example 19, 2-(Pyridine-3-ylethynyl)quinoline] | 43.9 | 65.8 | 
COc1cccc2nc(C#Cc3cccnc3)ccc12 [Example 20, 5-Methoxy-2-(pyridine-3-ylethynyl)quinoline] | 67.7 | 67.7 | 
CCOc1cccc2nc(C#Cc3cccnc3)ccc12 [Example 21, 5-Ethoxy-2-(pyridine-3-ylethynyl)quinoline] | 47.2 | 66.6 | 
CC(C)(C)C(=O)Oc1cccc2nc(C#Cc3cccnc3)ccc12 [Example 22, 2-(Pyridine-3-ylethynyl)quinoline-5-ylpivalate] |  |  | % Inhibition rate (mGluR5) (mGluR5 [1]; 1 μM compound): 10.56%; % Inhibition rate (mGluR5) (mGluR5 [1]; 10 μM compound): 28.5%
Oc1cccc2nc(C#Cc3cccnc3)ccc12 [Example 23, 2-(Pyridine-3-ylethynyl)quinoline-5-ol] | 25.2 | 17.6 | 
Clc1cccc2nc(C#Cc3cccnc3)ccc12 [Example 24, 5-Chloro-2-(pyridine-3-ylethynyl)quinoline] | 11.2 | 28.4 | 
Brc1cccc2nc(C#Cc3cccnc3)ccc12 [Example 25, 5-Bromo-2-(pyridine-3-ylethynyl)quinoline] | 22 | 40.1 | 
CC(C)(C)C(=O)Oc1cccc2nc(C#Cc3ccccn3)ccc12 [Example 27, 2-(Pyridine-2-ylethynyl)quinoline-5-ylpivalate] |  |  | % Inhibition rate (mGluR5) (mGluR5 [1]; 1 μM compound): 17.12%; % Inhibition rate (mGluR5) (mGluR5 [1]; 10 μM compound): 62.44%
Oc1cccc2nc(C#Cc3ccccn3)ccc12 [Example 28, 2-(Pyridine-2-ylethynyl)quinoline-5-ol] | 17.4 | 22.1 | 
Brc1cccc2nc(C#Cc3ccccn3)ccc12 [Example 29, 5-Bromo-2-(pyridine-2-ylethynyl)quinoline] | 56.7 | 77.5 | 
Fc1cccnc1C#Cc1ccc2ccccc2n1 [Example 30, 2-((3-Fluoropyridine-2-yl)ethynyl)quinoline] | 31.3 | 55.2 | 
Cc1cccnc1C#Cc1ccc2ccccc2n1 [Example 31, 2-((3-Methylpyridine-2-yl)ethynyl)quinoline] | 18.9 | 40.1 | 

Continued, in another order:

inhibition at 1 µM (mGluR5 [1]; 1 μM compound) [%] | inhibition at 10 µM (mGluR5 [1]; 10 μM compound) [%] | Compound | other results
23.3 | 58 | FC(F)(F)c1ccnc(C#Cc2ccc3ccccc3n2)c1 [Example 32, 2-((4-(Trifluoromethyl)pyridine-2-yl)ethynyl)quinoline] | 
35.2 | 76.1 | N#Cc1ccnc(C#Cc2ccc3ccccc3n2)c1 [Example 33, 2-(Quinoline-2-ylethynyl)isonicotinonitrile] | 
21.9 | 66.5 | Cc1ccnc(C#Cc2ccc3ccccc3n2)c1 [Example 34, 2-((4-Methylpyridine-2-yl)ethynyl)quinoline] | 
13 | 50.7 | FC(F)(F)c1ccc(C#Cc2ccc3ccccc3n2)nc1 [Example 35, 2-((5-(Trifluoromethyl)pyridine-2-yl)ethynyl)quinoline] | 
33.9 | 63.3 | Fc1ccc(C#Cc2ccc3ccccc3n2)nc1 [Example 36, 2-((5-Fluoropyridine-2-yl)ethynyl)quinoline] | 
29 | 66.3 | Cc1ccc(C#Cc2ccc3ccccc3n2)nc1 [Example 37, 2-((5-Methylpyridine-2-yl)ethynyl)quinoline] | 
15.8 | 28.7 | FC(F)(F)c1cccc(C#Cc2ccc3ccccc3n2)n1 [Example 38, 2-((6-(Trifluoromethyl)pyridine-2-yl)ethynyl)quinoline] | 
33 | 64.8 | N#Cc1cccc(C#Cc2ccc3ccccc3n2)n1 [Example 39, 6-(Quinoline-2-ylethynyl)picolinonitrile] | IC50 (mGluR5 [3]): 0.75 ± 0.17 µM; IC50 (hERG): 22.7 ± 7.04 µM; HLM % remaining after 30 min [2]: 98%; CYP (% remaining @ 10 μM) CYP2D6 (CYP2D6): 78%; CYP (% remaining @ 10 μM) CYP2C9 (CYP2C9): 52%; CYP (% remaining @ 10 μM) CYP3A4 (CYP3A4): 56%
29.6 | 46.9 | Fc1cccc(C#Cc2ccc3ccccc3n2)n1 [Example 40, 2-((6-Fluoropyridine-2-yl)ethynyl)quinoline] | 
16.6 | 48.6 | COc1cccc(C#Cc2ccc3ccccc3n2)n1 [Example 41, 2-((6-Methoxypyridine-2-yl)ethynyl)quinoline] | 
17.1 | 28.6 | C(#Cc1ncccn1)c1ccc2ccccc2n1 [Example 42, 2-(Pyrimidine-2-ylethynyl)quinoline] | 
17.3 | 15.9 | FC(F)(F)c1ccnc(C#Cc2ccc3ccccc3n2)n1 [Example 43, 2-((4-(Trifluoromethyl)pyrimidine-2-yl)ethynyl)quinoline] | 
16 | 15.6 | Fc1cnc(C#Cc2ccc3ccccc3n2)nc1 [Example 44, 2-((5-Fluoropyrimidine-2-yl)ethynyl)quinoline] | 
13.6 | 22.4 | C(#Cc1ccc2ccccc2n1)c1cncnc1 [Example 45, 2-(Pyrimidine-5-ylethynyl)quinoline] | 
